Measurements as given in US6737383B1, “Herbicidal oxadiazolidines” (priority 1999, dated 2004).

How the values were obtained:
[1] = test system: blackgrass; experiment: Test B pre/postemergence blackgrass; assay type: in vivo, Alopecurus myosuroides
How it was run: (§1)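 Test chemicals in a non-phytotoxic solvent mixture with surfactant were sprayed preemergence onto planted seeds and postemergence onto plants 2 to 18 cm tall (1- to 4-leaf stage). After twelve to sixteen days in a greenhouse, injury was visually rated against untreated controls from 0 (no effect) to 10 (complete control).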

[2] = test system: smallflower flatsedge; experiment: Test B flood test smallflower flatsedge; assay type: in vivo, Cyperus difformis
How it was run: (§2)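 Each value is a visual injury score relative to controls, with 10 meaning complete control and 0 no effect. Evaluation took place twelve to sixteen days after the 2-leaf-stage plants were treated and kept in the greenhouse.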

[3] = test system: bedstraw; experiment: Test B pre/postemergence bedstraw; assay type: in vivo, Galium aparine
How it was run: as §1

[4] = test system: wheat; experiment: Test B pre/postemergence wheat; assay type: in vivo, Triticum aestivum
How it was run: as §1

[5] = test system: duck salad; experiment: Test B flood test duck salad; assay type: in vivo, Heteranthera limosa
How it was run: as §2

[6] = test system: velvetleaf; experiment: Test B pre/postemergence velvetleaf; assay type: in vivo, Abutilon theophrasti
How it was run: as §1

[7] = test system: sugar beet; experiment: Test B pre/postemergence sugar beet; assay type: in vivo, Beta vulgaris
How it was run: as §1

[8] = test system: rice; experiment: Test B flood test rice; assay type: in vivo, Oryza sativa
How it was run: as §2

[9] = test system: giant foxtail; experiment: Test B pre/postemergence giant foxtail; assay type: in vivo, Setaria faberii
How it was run: as §1

[10] = test system: rape; experiment: Test B pre/postemergence rape; assay type: in vivo, Brassica napus
How it was run: as §1

[11] = test system: bamyardgrass; experiment: Test B flood test barnyardgrass; assay type: in vivo, Echinochloa crus-galli
How it was run: as §2

[12] = test system: soybean; experiment: Test B pre/postemergence soybean; assay type: in vivo, Glycine max
How it was run: as §1

[13] = test system: wild oat; experiment: Test B pre/postemergence wild oat; assay type: in vivo, Avena fatua
How it was run: as §1

[14] = test system: morningglory; experiment: Test B pre/postemergence morningglory; assay type: in vivo, Ipomoea hederacea
How it was run: as §1

[15] = test system: purple nutsedge; experiment: Test B pre/postemergence purple nutsedge; assay type: in vivo, Cyperus rotundus
How it was run: as §1

[16] = test system: pigweed; experiment: Test B pre/postemergence pigweed; assay type: in vivo, Amaranthus retroflexus
How it was run: as §1

[17] = Postemergence, Rate 62 g/ha, scale 0 to 10, 0 is no effect, 10 is complete control
[18] = Postemergence, Rate 250 g/ha, scale 0 to 10, 0 no effect, 10 complete control
[19] = Preemergence, Rate 31 g/ha, visual rating, scale 0 to 10 (0 no effect, 10 complete control)
[20] = Preemergence, Rate 62 g/ha, scale 0 to 10, 0 is no effect, 10 is complete control
[21] = Preemergence, Rate 125 g/ha, scale 0 to 10 (0 no effect, 10 complete control)
[22] = Preemergence, Rate 250 g/ha, scale of 0 to 10 where 0 is no effect and 10 is complete control
[23] = Rate 31 g/ha, Postemergence, scale 0 to 10
[24] = Rate 125 g/ha, Postemergence, scale 0 to 10, 0 no effect, 10 complete control
[25] = Rate 125 g/ha, Postemergence section (flood test species), scale 0 to 10, 0 no effect, 10 complete control
[26] = Rate 250 g/ha, headed Pre-emergence (flood test species), scale 0 to 10 (0 no effect, 10 complete control)
[27] = Rate 500 g/ha, headed Pre-emergence (flood test species), scale 0 to 10 (0 no effect, 10 complete control)
[28] = Rate 2000 g/ha, Pre-emergence (as headed), scale 0 to 10
[29] = flood test, listed under Postemergence, Rate 250 g/ha, scale 0 to 10, 0 no effect, 10 complete control
[30] = Rate 500 g/ha, Postemergence section of Table B, 0 to 10 scale (0 no effect, 10 complete control)
[31] = Rate 1000 g/ha, Pre-emergence (as headed), scale 0 to 10

COc1ccccc1-n1c(=O)on(C(=O)N(c2ccc(F)cc2)C(C)C)c1=O [Compound 30]
Blackgrass plant response rating [1, 17]: 0
Blackgrass plant response rating [1, 18]: 2
Blackgrass plant response rating [1, 19]: 0
Plant response rating, Blackgrass [1, 20]: 3
Plant response rating, Blackgrass [1, 21]: 3
Plant response rating, Blackgrass [1, 22]: 7
Blackgrass plant response rating [1, 23]: 0
Blackgrass plant response rating [1, 24]: 0
S. Flatsedge plant response rating [2, 17]: 0
S. Flatsedge plant response rating ([2]; Pre-emergence, Rate 1000 g/ha, scale 0 to 10 (0 no effect, 10 complete control)): 0
S. Flatsedge plant response rating [2, 25]: 0
S. Flatsedge plant response rating [2, 26]: 0
Plant response rating, S. Flatsedge [2, 27]: 0
S. Flatsedge plant response rating [2, 28]: 0
S. Flatsedge plant response rating [2, 29]: 0
Bedstraw plant response rating [3, 17]: 0
Bedstraw plant response rating [3, 18]: 0
Bedstraw plant response rating [3, 19]: 0
Plant response rating, Bedstraw [3, 20]: 0
Plant response rating, Bedstraw [3, 21]: 0
Plant response rating, Bedstraw [3, 22]: 0
Bedstraw plant response rating [3, 23]: 0
Bedstraw plant response rating [3, 24]: 0
Wheat plant response rating [4, 17]: 0
Wheat plant response rating [4, 18]: 0
Wheat plant response rating [4, 19]: 0
Plant response rating, Wheat [4, 20]: 0
Plant response rating, Wheat [4, 21]: 0
Plant response rating, Wheat [4, 22]: 2
Wheat plant response rating [4, 24]: 0
Ducksalad plant response rating [5, 17]: 0
Ducksalad plant response rating [5, 25]: 0
Ducksalad plant response rating [5, 26]: 0
Ducksalad plant response rating [5, 30]: 0
Plant response rating, Ducksalad [5, 27]: 0
Ducksalad plant response rating [5, 31]: 0
Ducksalad plant response rating [5, 28]: 0
Ducksalad plant response rating [5, 29]: 0
Velvetleaf plant response rating [6, 17]: 0
Velvetleaf plant response rating [6, 18]: 0
Velvetleaf plant response rating [6, 19]: 0
Plant response rating, Velvetleaf [6, 20]: 0
Plant response rating, Velvetleaf [6, 21]: 0
Plant response rating, Velvetleaf [6, 22]: 3
Velvetleaf plant response rating [6, 24]: 0
Sugarbeets plant response rating [7, 17]: 0
Sugarbeets plant response rating [7, 18]: 0
Sugarbeets plant response rating [7, 19]: 0
Plant response rating, Sugarbeets [7, 20]: 0
Plant response rating, Sugarbeets [7, 21]: 0
Plant response rating, Sugarbeets [7, 22]: 0
Sugarbeets plant response rating [7, 24]: 0
Rice plant response rating [8, 17]: 0
Rice plant response rating [8, 25]: 0
Rice plant response rating [8, 26]: 0
Rice plant response rating [8, 30]: 0
Plant response rating, Rice [8, 27]: 0
Rice plant response rating [8, 31]: 0
Rice plant response rating [8, 28]: 0
Rice plant response rating [8, 29]: 0
Giant foxtail plant response rating [9, 17]: 0
Giant foxtail plant response rating [9, 18]: 3
Giant foxtail plant response rating [9, 19]: 2
Plant response rating, Giant foxtail [9, 20]: 2
Plant response rating, Giant foxtail [9, 21]: 3
Plant response rating, Giant foxtail [9, 22]: 10
Giant foxtail plant response rating [9, 23]: 0
Giant foxtail plant response rating [9, 24]: 2
Rape plant response rating [10, 17]: 0
Rape plant response rating [10, 18]: 0
Rape plant response rating [10, 19]: 0
Plant response rating, Rape [10, 20]: 0
Plant response rating, Rape [10, 21]: 0
Plant response rating, Rape [10, 22]: 0
Rape plant response rating [10, 23]: 0
Rape plant response rating [10, 24]: 0
Barnyardgrass plant response rating [11, 17]: 0
Barnyardgrass plant response rating [11, 25]: 0
Barnyardgrass plant response rating [11, 26]: 0
Barnyardgrass plant response rating [11, 30]: 0
Plant response rating, Barnyardgrass [11, 27]: 0
Barnyardgrass plant response rating [11, 31]: 0
Barnyardgrass plant response rating ([11]; Rate 2000 g/ha, Pre-emergence (as headed), scale 0 to 10, 0 no effect, 10 complete control): 0
Barnyardgrass plant response rating [11, 29]: 0
Soybean plant response rating [12, 17]: 1
Soybean plant response rating [12, 18]: 2
Soybean plant response rating [12, 19]: 0
Plant response rating, Soybean [12, 20]: 0
Plant response rating, Soybean [12, 21]: 0
Plant response rating, Soybean [12, 22]: 0
Soybean plant response rating [12, 24]: 1
Wild oats plant response rating [13, 17]: 0
Wild oats plant response rating [13, 18]: 0
Wild oats plant response rating [13, 19]: 0
Plant response rating, Wild oats [13, 21]: 2
Plant response rating, Wild oats [13, 22]: 8
Wild oats plant response rating [13, 24]: 0
Morningglory plant response rating [14, 17]: 1
Morningglory plant response rating [14, 18]: 6
Morningglory plant response rating [14, 19]: 0
Plant response rating, Morningglory [14, 20]: 0
Plant response rating, Morningglory [14, 21]: 0
Plant response rating, Morningglory [14, 22]: 0
Morningglory plant response rating [14, 23]: 1
Morningglory plant response rating [14, 24]: 1
Nutsedge plant response rating [15, 17]: 0
Nutsedge plant response rating [15, 18]: 0
Nutsedge plant response rating [15, 19]: 0
Plant response rating, Nutsedge [15, 20]: 0
Plant response rating, Nutsedge [15, 21]: 0
Plant response rating, Nutsedge [15, 22]: 0
Nutsedge plant response rating [15, 23]: 0
Nutsedge plant response rating [15, 24]: 0
Redroot pigweed plant response rating [16, 17]: 0
Redroot pigweed plant response rating [16, 18]: 0
Redroot pigweed plant response rating [16, 19]: 0
Plant response rating, Redroot pigweed [16, 20]: 0
Plant response rating, Redroot pigweed [16, 21]: 0
Plant response rating, Redroot pigweed [16, 22]: 7
Redroot pigweed plant response rating [16, 23]: 0
Redroot pigweed plant response rating [16, 24]: 0
